From US20050202508A1, “Biomarker for Parkinson's disease” (priority 2003, published 2005)

What was measured:
PD patients = details: cited from earlier work
PIF mRNA = PIF mRNA expression after MPP+ treatment, northern blot; format: cell-based; details: MPP+ treatment 12 hr, enriched rat DAergic neuron cultures, FIG. 12A
Text: (§1) The exact molecular mechanisms leading to the pathophysiology of PD are not well understood. MPP^+, a mitochondrial complex I inhibitor, produces PD-type symptoms in humans and laboratory animals and has been used to investigate PD pathogenesis^12,13. MPP^+, the ultimate metabolite of MPTP, is taken up into DAergic neurons where it accumulates in mitochondria and works to inhibit complex I activity. Although the mechanism of MPP^+-induced neurotoxicity is not fully understood, there is increasing evidence supporting the involvement of reactive oxygen species (ROS)^14. […]
(§2) For these studies enriched mesecephalic DAergic cultures were obtained from E16 Sprague Dawley embryos and cultured for 10 days in poly 1-ornithine coated culture dish at a density of 0.5×10^6 cells per well and maintained in Neurobasal medium with B-27 supplement and 0.5 mM glutamine, as previously described^16. In A, following MPP^+ treatment for 12 hr, total RNA was extracted from the neuronal cultures using Ultraspec RNA (Biotecx) and PIF mRNA expression assessed by northern blot hybridization assay using ^32p labeled hPIF cDNA^17 and quantified by phospho-imaging (Molecular Dynamics). […] Non-specific transport was determined in parallel assays conducted in the presence of 1 uM GBR12909 and incorporated [^3H]-dopamine was extracted with NaOH (0.5M) and quantified by liquid scintillation spectrometry

substantia nigra = experiment: In vivo MRM T2-weighted imaging of substantia nigra after MPTP lesion; parameters: species or system mouse
Text: The goal of this study was to develop a non-invasive methodology for functionally assessing the predicative role of novel protein biomarkers in CSF (and serum) for experimental MPTP SN neurodegeneration in pre-clinical models of PD (Aim 4) using MRM imaging technology in collaboration with Dr. Cheuk Tang (Collaborator, Imaging Sciences Laboratory, Dept. Neuroradiology) and Dr. Patrick Hof (Collaborator, Advance Imaging Program, Center for Neurobiology), of Mount Sinai Medical School. The studies are based on the principle that increased iron content found in SN of PD and MPTP models of PD^29-31 may be an index of SN neurodegeneration, which can be monitored by MRM^32,33, longitudinally. Given that MRM measurement is highly sensitive to iron content in SN dopaminergic cells, we hypothesized that MRM may offer a means for non-invasive evaluation of SN neurodegeneration. In exciting ongoing studies, using a 9.4 Tesla micro MRM imager (Bruker Instrument) we collected matched consecutive rostro-caudal T2-weighted in vivo MRM images of the whole brain from the same mouse, prior to and four-days after SN MPTP lesion. […] As predicted, this observation of hypo-intense MRM measurements in the SN post-lesioning is consistent with an elevation in iron content in the degenerating nigrostriatal DAergic neurons. […]

[1] = system: substantia nigra DAergic neurons; format: in vivo, mouse
Protocol: In this study SN DAergic lesions in male C57B6/SJ mice were obtained by i.p. MPTP injection (four consecutive injections at 2 hr intervals; 20 mg/kg/body weight (BW) per injection 27); saline injected mice were used as a control (n=4 per group). Four days following MPTP (or saline) injection, mice were anesthetized using a combination of ketamine (50 mg/kg BW) and xylazine (5 mg/kg BW), CSF was then collected from cisterna magna, as previously described^28. Immediately after CSF collection (4 days post-lesioning), mice were sacrificed by cervical dislocation and the brain was collected, preserved under cryoprotection and stored at −80° C. 1 μl of CSF from each animal was analyzed by SELDI technology as described in FIG. 1. […] In panel 3B, number of thyroxine hydroxylase (TH)-immunoreactive DAergic neurons in the SN counted stereologically, with data are expressed as mean+SEM for MPTP and saline groups. In panels A and B, n=4 per group; *P<0.05.

[2] = system: SY5Y neuroblastoma catecholaminergic cells; experiment: MPP+ toxicity in SY5Y cells, MTT assay; format: cell-based; details: 24 hr after exposure to MPP+; dose dependent; FIG. 9
Protocol: The PD biomarker DCD-1 promotes neurotoxicity in SY5Y cells in a dose dependent manner. In this study cell toxicity in SY5Y cells was assessed 24 hr after exposure to MPP+ using methylthiazoletetrazolium [3 (4,5-dimethylthiazol-2-yl)-2,5-diphenyltetrazolium bromide] (MTT) calorimetric assay, (an index or altered energy metabolism). Values represent Means+SEM of determinations from 2 separate cultures, n=3 cultures chambers per group * P<0.05 between MPP+ and MPP+ and DCD-1 treatment (see FIG. 9).

[3] = molecular target: PIF cell surface receptor (DCD receptor) (human); experiment: Scatchard analysis of AP-PIF binding to human SH-SY5Y neuronal cells
α-synuclein = experiment: alpha-synuclein immunoblot in enriched DAergic neuron cultures after hrPIF treatment; format: cell-based, rat
Text: Because of the recent evidence showing increased α-synuclein expression increases vulnerability to MPP/MPTP^19, we decided to explore the possibility that PIF might have promoted DAergic neurodgeneration through mechanisms that involve α-synuclein expression. […] This evidence is also consistent with work in Drosophila where overexpression of α-synuclein leads to DAergic toxicity^22. In these studies (see FIG. 13) 10 days old enriched […] cultures were obtained as discussed in FIG. 12. In A, following treatment with increasing concentrations of hrPIF, cultures lysed in each well using SDS-PAGE (5 mM Tris-HCl, 2% SDS, 0.1 M DTT, 0.001% Bromphenol blue, 10% glycerol, pH6.8) sample buffer. […] After 5 min incubation at RT in buffer, the Triton X-100 soluble fraction was gently collected from the-dish-. -The remaining Triton-insoluble material was gently rinsed once with ice cold PBS, and collected in buffer N (0.1 M Na2CO3, pH 11.5 with protease inhibitor cocktails). In C, the Triton-insoluble synuclein fraction was collected in the pellet by centrifugation at 16,000 g for 10 min and dissolved in 1×SDS buffer. Immunoblots used monoclonal anti α-synuclein antibody (1:1000, BD Bioscience) and immunoreactivities were visualized densitometrically.

[4] = system: rat mesencephalic DAergic neuron cultures; experiment: MPP+-mediated neurotoxicity in enriched rat mesencephalic DAergic neuron cultures, [3H]-dopamine uptake assay; format: cell-based
Text: as §1, §2

**Q.** For `N[C@@H](Cc1ccc(O)c(O)c1)C(=O)O` [L-dopa], which “extension of lifespan of PD patients, on average” value (PD patients) is on record?
**A.** one

**Q.** Which “PIF mRNA expression” value (PIF mRNA) does the source give for `C[n+]1ccc(-c2ccccc2)cc1` [MPP^+, 1-Methyl-4-phenylpyridinium ion] here?
**A.** dose dependently induced

**Q.** With `CN1CC=C(c2ccccc2)CC1` [MPTP] as the molecule, how does the “decrease in SN T2 density / T2-weighted values vs pre-lesion” value (substantia nigra; after MPTP lesion, n=2, 9.4 Tesla MRM) read?
**A.** approximately 25%

**Q.** What about the “average normalized SN T2 density (SN T2 density/temporal T2 density)” value (substantia nigra; post-MPTP lesioning, N=2 animals) of the same molecule?
**A.** 0.6904 ± 0.05

**Q.** And the “loss of tyrosine hydroxylase (TH) immunopositive neurons” value ([1]; MPTP i.p. 4 x 20 mg/kg, 4 days post-lesioning, stereological count)?
**A.** approximately 25%

**Q.** What about the “4.6 kDa anionic DCD-like protein in CSF” value ([1]; mouse, in vivo) of the same molecule?
**A.** induced

**Q.** With “DCD-1: human recombinant DCD-1, aa 63-109 of dermcidin precursor, 4.7 kDa (SEQ ID NO:1) (SSLLEKGLDGAKKAVGGLGKLGKDAVEDLESVGKGAVHDVKDVLDSV; homo sapiens)” as the molecule, how does the “effect on MPP+ mediated death (MTT)” value [2] read?
**A.** potentiates MPP+ mediated death

**Q.** What does the source list for “N-terminal alkaline phosphatase (AP) C-terminal PIF (DCD) precursor protein fusion protein (from UniProt P81605 20-110) (ligand)”?
**A.** Kd [3]: 51 nM; maximum binding concentration (receptors per cell) (PIF receptors per cell) [3]: 30000

B1: hrPIF: human recombinant full length dermicidin, His-tagged, expressed in M15 bacterial cells (protein)
chain: YDPEAASAPGSGNPCHEASAAQKENAGEDPGLARQAPKPRKQRSSLLEKGLDGAKKAVGGLGKLGKDAVEDLESVGKGAVHDVKDVLDSVL
modifications: left off: small tags and cut ends
notes: human recombinant full length dermicidin, His-tagged, expressed in M15 bacterial cells
**Q.** With B1 as the molecule, how does the “soluble oligomeric α-synuclein protofibrils” value (α-synuclein; Triton X-100 soluble fraction, FIG. 13B) read?
**A.** accumulation

**Q.** And the “aggregated α-synuclein” value (α-synuclein; Triton-insoluble fraction, FIG. 13C)?
**A.** not aggregated α-synuclein

**Q.** What about the “expression of total α-synuclein” value (α-synuclein; hrPIF treatment, FIG. 13A) of the same molecule?
**A.** increased expression

**Q.** What about the “potentiation of MPP+-mediated neurotoxicity, dopamine uptake assay” value ([4]; exogenous hrPIF with MPP+, 12 hours, FIG. 12B) of the same molecule?
**A.** ~1.5 fold

**Q.** What about the “potentiation of MPP+-induced neurotoxicity” value ([4]; exogenous hrPIF, rat mesencephalic DAergic neuron cultures, summary statement) of the same molecule?
**A.** ~2 fold
